Data published in article PMC6253839, “Screening of Agelasine D and Analogs for Inhibitory Activity against Pathogenic Protozoa; Identification of Hits for Visceral Leishmaniasis and Chagas Disease” (Molecules, 2009).
Converted amounts (≈) assume the structure as drawn. “Also recorded” adds a separate entry of the source. Where two headings read alike, the source gives them in different places.

How the values were obtained:
[1] = tested on: Leishmania infantum amastigotes (MHOM/ET 67); assay: Antileishmanial activity, amastigotes in primary peritoneal mouse macrophages; format: cell-based; conditions: for IC50: Leishmania infantum, Macrophage, intracellular amastigotes, 120 h, TDR hit criterion <0.5 μg/mL, read-out: L. infantum IC50
Protocol: Leishmania infantum amastigotes (MHOM/ET 67) were collected from an infected donor hamster and used to infect primary peritoneal mouse macrophages. To determine in vitro antileishmanial activity, 3×10^4 macrophages were seeded in each well of a 96-well plate. After 48 h outgrowth, 5×10^4 amastigotes/well were added and incubated for 2 h at 37 °C. […] Parasite burdens were determined microscopically after Giemsa staining and expressed as a percentage of the blank controls without compound.

[2] = tested on: T. cruzi Tulahuen CL2 strain (nifurtimox-sensitive); assay: Antitrypanosomal activity, T. cruzi on MRC-5 cells, β-galactosidase readout; format: cell-based, Trypanosoma cruzi; conditions: for IC50: Trypanosoma cruzi, TULAHUEN
Protocol: To determine in vitro anti-trypanosomal activity, 4×10^3 MRC-5 cells and 4×10^4 parasites were added to each well of test plate with compound. […] The color reaction was read at 540 nm and absorbance values were expressed as a percentage of the blank controls.

[3] = Cytotoxicity assay, resazurin; format: cell-based; conditions: human
Protocol: Cell viability was determined after addition of resazurin.

[4] = tested on: P. falciparum GHA-strain (chloroquine-suceptible); assay: Antiplasmodial activity, Malstat method; format: cell-based, Plasmodium falciparum; conditions: Plasmodium falciparum, read-out: P. falciparum IC50
Escherichia coli = tested on: Escherichia coli; parameters: method as in PMID 17442577; conditions: previous studies; cited from earlier work
[5] = tested on: Mycobacterium tuberculosis; conditions: previous studies; cited from earlier work
Staphyllococcus aureus = tested on: Staphyllococcus aureus; parameters: method as in PMID 17442577; conditions: previous studies; cited from earlier work
[6] = MRC5, 168 h, read-out: T. cruzi IC50
[7] = GHA-strain, 72 h, TDR hit criterion <0.2 μg/mL
[8] = MRC-5 SV2 cells (human fetal lung fibroblasts)

Structure (SMILES) | IC50 [1] | IC50 [2, 6] | IC50 [4, 7] | IC50 at 72 h [3, 8] | also measured
C=C1CC[C@@H]2C(C)(C)CCC[C@@]2(C)[C@@H]1CC/C(C)=C/Cn1c[n+](C)c2ncnc(N)c21 [Compound 2c, agelasine D] | 1.5 µg/mL | 4.5 µg/mL | 0.29 µg/mL |  | IC50 at 72 h ([3]; read-out: MRC-5 IC50): 6.7 µg/mL; IC50 ([4]; same value as 0.29 μg/mL, in μM): 0.63 µM
CC1=C(CC/C(C)=C/CC/C(C)=C/Cn2cnc3c2C(=N)N(C)CN3C)C(C)(C)CCC1 [Compound 9] | > 28 µg/mL | 3.2 µg/mL (≈ 7.31 µM) | > 28 µg/mL | > 28 µg/mL | IC50 ([2]; MRC5, read-out: T. cruzi IC50): < 1 µg/mL
CO/N=c1\[n-]cnc2c1[n+](C/C=C(\C)CC/C=C(\C)CCC=C(C)C)cn2C [Compound 1b] | 0.77 µg/mL (≈ 2.01 µM) | < 0.096 µg/mL | 0.63 µg/mL | 0.35 µg/mL (≈ 0.913 µM) | 
CC(C)=CCC/C(C)=C/CC/C(C)=C/CC/C(C)=C/Cn1cnc2c(N)ncnc21 [Compound 3f, 9-Geranylgeranyladenine] | > 29 µg/mL | 0.77 µg/mL (≈ 1.89 µM) | > 29 µg/mL | 2.7 µg/mL (≈ 6.62 µM) | IC50 ([2]; MRC5, read-out: T. cruzi IC50): < 1 µg/mL
O=C(Cn1ccnc1[N+](=O)[O-])NCc1ccccc1 [Benznidazole, reference compound] |  |  |  |  | IC50 ([2]; MRC5, as printed in running text and table footnote, read-out: T. cruzi IC50): 0.25 µg/mL (≈ 0.961 µM)
CO/N=c1\[n-]cnc2c1[n+](C/C=C(\C)CCCC(C)CCCC(C)CCCC(C)C)cn2C (stereo not shown) [Compound 1j] | 0.23 µg/mL (≈ 0.503 µM) | < 0.11 µg/mL | 0.3 µg/mL | 0.21 µg/mL (≈ 0.459 µM) | activity against L. infantum, in words [1]: potent inhibitors
CC(C)=CCC/C(C)=C/CC/C(C)=C/CC/C(C)=C/C[n+]1cn(C)c2nc[n-]/c(=N\OCc3ccccc3)c21 [Compound 1e] | 5.4 µg/mL (≈ 10.2 µM) | 1.4 µg/mL (≈ 2.65 µM) | 4.2 µg/mL | 3.2 µg/mL (≈ 6.06 µM) | 
CC(C)=CCC/C(C)=C/CC/C(C)=C/CC/C(C)=C/Cn1cc[n+](C)c1 [Compound 5] | < 0.11 µg/mL | < 0.11 µg/mL | 0.97 µg/mL | 7.6 µg/mL | antibacterial activity against E. coli, in words (Escherichia coli): not against; antibacterial activity against M. tuberculosis, in words [5]: not against; hit for leishmaniasis according to TDR ([1]; criterion IC50 <0.5 μg/mL and SI >20): classifies as a hit; also recorded: identified as hits; hit for Chagas disease according to TDR [2]: classified as hits; also recorded: identified as hits; antibacterial activity against S. aureus, in words (Staphyllococcus aureus): reasonably active
CC(C)=CCC/C(C)=C/CC/C(C)=C/CC/C(C)=C/Cn1cnc2ncnc(NOCc3ccccc3)c21 [Compound 4c] | > 33 µg/mL | 1.5 µg/mL (≈ 2.92 µM) | 25 µg/mL | 1.5 µg/mL (≈ 2.92 µM) | 
CCN(CC)CCCC(C)Nc1ccnc2cc(Cl)ccc12 (stereo not shown) [Chloroquine, reference compound] |  |  |  |  | IC50 ([4]; 72 h): 0.04 µg/mL
CC(C)=CCC/C(C)=C/CC/C(C)=C/CC/C(C)=C/C[n+]1cn(C)c2nc[n-]/c(=N\OC(C)(C)C)c21 [Compound 1f] | 0.27 µg/mL (≈ 0.547 µM) | < 0.12 µg/mL | 0.26 µg/mL | 0.26 µg/mL (≈ 0.527 µM) | activity against L. infantum, in words [1]: potent inhibitors
CC(C)=CCC/C(C)=C/CC/C(C)=C/CC/C(C)=C/Cn1cnc2c1c(=N)ncn2C [Compound 8] | 13 µg/mL (≈ 30.8 µM) | 0.19 µg/mL (≈ 0.451 µM) | 3.37 µg/mL | 2.3 µg/mL (≈ 5.45 µM) | 
CONc1ncnc2ncn(C/C=C(\C)CC/C=C(\C)CC/C=C(\C)CCC=C(C)C)c12 [Compound 4b] | > 28 µg/mL | 0.28 µg/mL (≈ 0.64 µM) | > 28 µg/mL | 2.1 µg/mL (≈ 4.8 µM) | 
CC(C)=CCC/C(C)=C/CC/C(C)=C/CC/C(C)=C/Cn1c[n+](C)c2ccccc21 [Compound 6] | 2.5 µg/mL | < 0.12 µg/mL | 1 µg/mL | 2 µg/mL | 
C=C1CC[C@H]2C(C)(C)CCC[C@]2(C)[C@H]1CC/C(C)=C/Cn1c[n+](C)c2nc[n-]/c(=N\OC(C)(C)C)c21 [Compound 1o] | 4 µg/mL (≈ 8.1 µM) | < 0.12 µg/mL | 0.94 µg/mL | 0.45 µg/mL (≈ 0.911 µM) | 
